Data reported in patent US10166199B2, “Transdermal patch comprising a ropivacaine formulation” (BUZZZ PHARMACEUTICALS LIMITED, priority 2013, dated 2019).
Like-named read-outs stand apart in the source and are kept apart here.

Columns and labels:
[1] = Excipient compatibility with Duro-Tak 87-900A adhesive; assay type: physicochemical; conditions: ropivacaine 4% (w/w) and excipient 5% (w/w) in Duro-Tak 87-900A; miscible, no precipitate after 72 hours
Procedure: (§1) Further excipients were assessed for ropivacaine solubility and compatibility with Duro-Tak® adhesive 87-900A. Adhesive compatibility was assessed by mixing ropivacaine (4% (w/w)) and excipient (5% (w/w)) with Duro-Tak® 87-900A.

[2] = Approximate ropivacaine solubility in excipients, assessed visually; assay type: physicochemical
Procedure: Approximate solubilities were assessed visually by gradual addition of ropivacaine to a known volume of excipient at room temperature until saturation was observed.
as §1

[3] = local anaesthetic during cataract surgery, cited from earlier work
[4] = solubility of ropivacaine in the named excipient, gradual addition at room temperature, visual

CCCCCCCC/C=C\CCCCCCCC(=O)OCC(O)CO (stereo not shown) [Capmul-GMO-50, glycerol monooleate]
900A Compatible [1]: no

CO[C@H]1CO[C@H]2[C@@H]1OC[C@H]2OC [DMI, dimethylisosorbide]
% Solubility (ropivacaine in candidate excipient) [2, 4]: 2.8-3.6 % w/v

CCOCCOCCO [Transcutol P, ethoxy diglycol]
% Solubility (ropivacaine in candidate excipient) [2, 4]: 4.1-4.6 % w/v
900A Compatible [1]: yes

CCCN1CCCC[C@H]1C(=O)Nc1c(C)cccc1C [ropivacaine, (2S)—N-(2,6-dimethylphenyl)-1-propyl-2-piperidinecarboxamide]
potency relative to lidocaine ([3]; dose-for-dose): as much as four times as potent as lidocaine
half life relative to lidocaine [3]: longer half life

apricot kernel oil PEG-6 esters [Labrafil M 1944 CS]
% Solubility (ropivacaine in candidate excipient) [2]: 1.2-2.1 % w/v

propylene glycol dicaprylate/dicaprate [Labrafac PG]
% Solubility (ropivacaine in candidate excipient) [2]: 1.3-1.8 % w/v

sorbitan monooleate [Span 80]
900A Compatible [1]: no

sorbitan trioleate [Span 85]
900A Compatible [1]: yes
